Values quoted from earlier work as cited in publication PMC2222665, “The dimerization domain of HIV-1 viral infectivity factor Vif is required to block virion incorporation of APOBEC3G” (Retrovirology, 2007).

Tested on: HIV-1
Set-up: method as in PMID 1708976
Conditions: ref [45],[46]

For `Cc1cn([C@H]2C[C@H](N=[N+]=[N-])[C@@H](CO)O2)c(=O)[nH]c1=O` [AZT], the “IC95 of HIV-1 infectivity” value is listed as 5 µM.
